Results from patent publication US12065428B2, “Anti-viral compounds” (Aligos Therapeutics, Inc., priority 2021, dated 2024).
Where two headings read alike, the source gives them in different places.

Assays:
[1] = target: T1, SARS-Cov-2 3CLpro (Severe acute respiratory syndrome coronavirus 2, UniProt P0DTD1); assay: SARS-Cov-2 3CLpro and HRV3C duplex assay (SAMDI-MS): 3CLpro; format: biochemical; settings: 3CLpro, duplex assay, 30 mins preincubation; class symbols; read-out: SARS-Cov-2 IC50
T1 construct: SARS-Cov-2 3CLpro and HRV3C Duplex Assay

[2] = target: T2, HRV3C (Human rhinovirus 14, UniProt P03303); assay: biochemical; settings: read-out: HRV IC50
T2 construct: SARS-Cov-2 3CLpro and HRV3C Duplex Assay

[3] = tested on: human beta-coronavirus OC43; assay: OC43 coronavirus assay in HeLa cells (cytopathic effect, cell-titer-glo); format: cell-based
[4] = Cytotoxicity plates without OC43 virus in HeLa cells; format: cell-based; settings: human, HeLa cells (uninfected)
In short: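 HeLa cells pretreated 4 h with serially diluted compounds, then infected with OC43 at a dose giving 80-90% viability loss and incubated 6 days at 33 °C. Viability by CellTiter-Glo luminescence; EC50 from four-parameter fit of CPE inhibition. Uninfected parallel plates gave cytotoxicity.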

[5] = tested on: SARS-CoV-2-GHB-03021/2020; assay: microbe, parasite or virus in culture; format: cell-based; settings: Severe acute respiratory syndrome coronavirus 2, Vero C1008, 96 h; read-out: VeroE6 + CP (EC50)
[6] = target: T3, human cathepsin L (Homo sapiens, UniProt P07711); assay: Cathepsin L assay (Z-FR-AMC fluorescence); format: biochemical; settings: 10 pM human cathepsin L, 30 mins preincubation; class symbols
T3 construct: purchased R&D Systems
In short: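 Reactions began by adding 2 μM (final) Z-FR-AMC substrate to 10 pM human cathepsin L that had been preincubated 30 min with inhibitor. Kinetic AMC fluorescence at 355/460 nm over 30 min at 2-min intervals; four-parameter fitting gave IC50 values.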

[7] = HRV3C, duplex assay, 30 mins preincubation, class symbols
[8] = Betacoronavirus 1, 144 h, OC43 in HeLa cells, 6 days at 33° C., class symbols, read-out: EC50

T3 sequence (P07711 114-333): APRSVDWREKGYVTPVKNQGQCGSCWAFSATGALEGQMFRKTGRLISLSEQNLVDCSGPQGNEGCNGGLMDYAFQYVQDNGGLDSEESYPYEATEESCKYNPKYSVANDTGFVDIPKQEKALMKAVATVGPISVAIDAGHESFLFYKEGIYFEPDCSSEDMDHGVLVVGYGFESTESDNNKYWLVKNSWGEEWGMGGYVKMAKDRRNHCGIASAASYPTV
T2 sequence (P03303 1538-1719): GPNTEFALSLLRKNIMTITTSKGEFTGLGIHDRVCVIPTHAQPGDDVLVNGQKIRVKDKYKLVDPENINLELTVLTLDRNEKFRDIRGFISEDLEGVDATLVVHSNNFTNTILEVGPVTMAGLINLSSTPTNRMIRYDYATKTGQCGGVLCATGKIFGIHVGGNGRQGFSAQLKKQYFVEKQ

O=C(NC1CC1)C(=O)[C@H](C[C@@H]1CCNC1=O)NC(=O)[C@@H]1CC2(CCN1C(=O)c1csc(-c3ccccc3)n1)CC2 [Compound 40]
IC50 [1]: 200 to 2000 nM
IC50 [2, 7]: 200 to 2000 nM
EC50 [3, 8]: 100 to 1000 nM
CC50 at 6 days ([4]; numeric bound, unit inferred): > 100000 nM
EC50 [5]: 1000 to 10000 nM
IC50 [6]: ≥ 10000 nM

O=C(NC1CC1)C(=O)[C@H](C[C@@H]1CCNC1=O)NC(=O)[C@@H]1CC2(CCN1C(=O)c1cccc(-c3ccccc3)n1)CC2 [Compound 41]
IC50 [1]: 200 to 2000 nM
IC50 [2, 7]: 200 to 2000 nM
EC50 [3, 8]: 100 to 1000 nM
CC50 at 6 days ([4]; numeric bound, unit inferred): > 100000 nM
EC50 [5]: 1000 to 10000 nM
IC50 [6]: ≥ 10000 nM

COc1ccccc1-c1csc(C(=O)N2CCC3(CC3)C[C@H]2C(=O)N[C@@H](C[C@@H]2CCNC2=O)C(=O)C(=O)NC2CC2)n1 [Compound 42]
IC50 [1]: 200 to 2000 nM
IC50 [2]: > 10000 nM
EC50 [3, 8]: 100 to 1000 nM
CC50 at 6 days ([4]; numeric bound, unit inferred): > 100000 nM
EC50 [5]: 1000 to 10000 nM
IC50 [6]: ≥ 10000 nM

O=C(NC1CC1)C(=O)[C@H](C[C@@H]1CCNC1=O)NC(=O)[C@@H]1CC2(CCN1C(=O)c1nc(-c3ccccc3Cl)cs1)CC2 [Compound 43]
IC50 [1]: 200 to 2000 nM
IC50 [2]: > 10000 nM
EC50 [3, 8]: 100 to 1000 nM
CC50 at 6 days ([4]; numeric bound, unit inferred): > 100000 nM
EC50 [5]: 1000 to 10000 nM
IC50 [6]: ≥ 10000 nM

O=C(NC1CC1)C(=O)[C@H](C[C@@H]1CCNC1=O)NC(=O)[C@@H]1CC2(CCN1C(=O)c1nc(-c3ccc(Cl)cc3)cs1)CC2 [Compound 44]
IC50 [1]: 200 to 2000 nM
IC50 [2]: > 10000 nM
EC50 [3, 8]: 100 to 1000 nM
CC50 at 6 days ([4]; class symbols): 10000 to 100000 nM
EC50 [5]: 1000 to 10000 nM
IC50 [6]: ≥ 10000 nM

O=C(NC1CC1)C(=O)[C@H](C[C@@H]1CCNC1=O)NC(=O)[C@@H]1CC2(CCN1C(=O)c1csc(-c3cccc(Cl)c3)n1)CC2 [Compound 45]
IC50 [1]: 20 to 200 nM
IC50 [2, 7]: 2000 to 20000 nM
EC50 [3, 8]: 100 to 1000 nM
CC50 at 6 days ([4]; class symbols): 10000 to 100000 nM
EC50 [5]: < 1000 nM
IC50 [6]: ≥ 10000 nM

O=C(NC1CC1)C(=O)[C@H](C[C@@H]1CCNC1=O)NC(=O)[C@@H]1CC2(CCN1C(=O)c1nc(C3CCCCC3)cs1)CC2 [Compound 46]
IC50 [1]: 200 to 2000 nM
IC50 [2]: > 10000 nM
EC50 [3, 8]: 100 to 1000 nM
CC50 at 6 days ([4]; numeric bound, unit inferred): > 100000 nM
EC50 [5]: 1000 to 10000 nM
IC50 [6]: 1000 to 10000 nM

O=C(NC1CC1)C(=O)[C@H](C[C@@H]1CCNC1=O)NC(=O)[C@@H]1CC2(CCN1C(=O)[C@@H]1C[C@@H]1c1ccccc1)CC2 [Compound 47]
IC50 [1]: 2000 to 20000 nM
IC50 [2, 7]: 200 to 2000 nM
EC50 ([3]; Betacoronavirus 1, OC43, HeLa): > 10000 nM
CC50 at 6 days ([4]; numeric bound, unit inferred): > 100000 nM
EC50 [5]: > 50000 nM
IC50 [6]: ≥ 10000 nM

O=C(NC1CC1)C(=O)[C@H](C[C@@H]1CCNC1=O)NC(=O)[C@@H]1CC2(CCN1C(=O)[C@@H]1C[C@H]1c1ccccc1)CC2 [Compound 48]
IC50 [1]: 20 to 200 nM
IC50 [2, 7]: 200 to 2000 nM
EC50 [3, 8]: 100 to 1000 nM
CC50 at 6 days ([4]; numeric bound, unit inferred): > 100000 nM
EC50 [5]: 1000 to 10000 nM
IC50 [6]: 1000 to 10000 nM

O=C(NC1CC1)C(=O)C(C[C@@H]1CCNC1=O)NC(=O)[C@@H]1[C@@H]2C[C@@H](CC23CC3)N1C(=O)c1ncc(-c2ccccc2)s1 (stereo partly drawn) [Compound 49, N-cyclopropyl-2-oxo-4-[(3S)-2-oxopyrrolidin-3-yl]-3-[(1R,4S,6S)-5-(5-phenyl-1,3-thiazole-2-carbonyl)-5-azaspiro[bicyclo[2.2.1]heptane-2,1′-cyclopropan]-6-ylformamido]butanamide]
IC50 [1]: 20 to 200 nM
IC50 [2, 7]: 2000 to 20000 nM
EC50 [3, 8]: 100 to 1000 nM
CC50 at 6 days ([4]; numeric bound, unit inferred): > 100000 nM
EC50 [5]: < 1000 nM
IC50 [6]: ≥ 10000 nM

CC(C)(C)[C@H](NC(=O)C(F)(F)F)C(=O)N1[C@H]2C[C@@H]([C@H]1C(=O)N[C@H](C#N)C[C@@H]1CCNC1=O)C1(CC1)C2 [Compound 50, (1R,4S,6S)—N-[(1S)-1-cyano-2-[(3S)-2-oxopyrrolidin-3-yl]ethyl]-5-[(2S)-3,3-dimethyl-2-(2,2,2-trifluoroacetamido)butanoyl]-5-azaspiro[bicyclo[2.2.1]heptane-2,1′-cyclopropane]-6-carboxamide]
IC50 [1]: < 20 nM
IC50 [2]: > 10000 nM
EC50 [3, 8]: < 100 nM
CC50 at 6 days ([4]; numeric bound, unit inferred): > 100000 nM
EC50 [5]: < 1000 nM
IC50 [6]: ≥ 10000 nM

CC(C)(C)[C@H](NC(=O)C(F)(F)F)C(=O)N1CCC2(C[C@H]1C(=O)N[C@H](C#N)C[C@@H]1CCNC1=O)CC(F)(F)C2 [Compound 51, (S)—N—((S)-1-cyano-2-((S)-2-oxopyrrolidin-3-yl)ethyl)-7-((S)-3,3-dimethyl-2-(2,2,2-trifluoroacetamido)butanoyl)-2,2-difluoro-7-azaspiro[3.5]nonane-6-carboxamide]
IC50 [1]: 200 to 2000 nM
IC50 [2]: > 10000 nM
EC50 [3, 8]: 1000 to 10000 nM
CC50 at 6 days ([4]; numeric bound, unit inferred): > 100000 nM
EC50 [5]: 1000 to 10000 nM
IC50 [6]: ≥ 10000 nM

O=C(NC1CC1)C(=O)[C@H](C[C@@H]1CCNC1=O)NC(=O)[C@@H]1CC2(CCN1C(=O)c1ncc(-c3ccccc3)s1)CC2 [Example 1, (S)—N—((S)-4-(cyclopropylamino)-3,4-dioxo-1-((S)-2-oxopyrrolidin-3-yl)butan-2-yl)-6-(5-phenylthiazole-2-carbonyl)-6-azaspiro[2.5]octane-5-carboxamide]
IC50 [1]: 20 to 200 nM
IC50 [2, 7]: 200 to 2000 nM
EC50 [3, 8]: 100 to 1000 nM
CC50 at 6 days ([4]; class symbols): 10000 to 100000 nM
EC50 [5]: < 1000 nM
IC50 [6]: ≥ 10000 nM

Cn1c(C(=O)N2CCC3(CC3)C[C@H]2C(=O)N[C@@H](C[C@@H]2CCNC2=O)C(=O)CO)cc2ccccc21 [Example 2, (S)—N—((S)-4-hydroxy-3-oxo-1-((S)-2-oxopyrrolidin-3-yl)butan-2-yl)-6-(1-methyl-1H-indole-2-carbonyl)-6-azaspiro[2.5]octane-5-carboxamide]
IC50 [1]: 20 to 200 nM
IC50 [2]: > 10000 nM
EC50 [3, 8]: 1000 to 10000 nM
CC50 at 6 days ([4]; class symbols): ≥ 100000 nM
EC50 [5]: 1000 to 10000 nM
IC50 [6]: ≥ 10000 nM

O=C(NC1CC1)C(=O)[C@H](C[C@@H]1CCNC1=O)NC(=O)[C@@H]1CC2(CCN1C(=O)c1nc(-c3ccccc3)cs1)CC2 [Example 3]
IC50 [1]: 20 to 200 nM
IC50 [2, 7]: 2000 to 20000 nM
EC50 [3, 8]: 100 to 1000 nM
CC50 at 6 days ([4]; class symbols): 10000 to 100000 nM
EC50 [5]: 1000 to 10000 nM
IC50 [6]: ≥ 10000 nM

Cn1c(C(=O)N2CCC3(CC3)C[C@H]2C(=O)N[C@@H](C[C@@H]2CCNC2=O)C(=O)C(=O)NC2CC2)nc2ccccc21 [Example 4]
IC50 [1]: 20 to 200 nM
IC50 [2, 7]: 2000 to 20000 nM
EC50 [3, 8]: 1000 to 10000 nM
CC50 at 6 days ([4]; class symbols): ≥ 100000 nM
EC50 [5]: 1000 to 10000 nM
IC50 [6]: ≥ 10000 nM

Cn1c(C(=O)N2CCC3(CC3)C[C@H]2C(=O)N[C@H](C#N)C[C@@H]2CCNC2=O)cc2ccccc21 [Example 5, (S)—N—((S)-1-cyano-2-((S)-2-oxopyrrolidin-3-yl)ethyl)-6-(1-methyl-1H-indole-2-carbonyl)-6-azaspiro[2.5]octane-5-carboxamide]
IC50 [1]: 200 to 2000 nM
IC50 [2]: > 10000 nM
EC50 [3, 8]: 1000 to 10000 nM
CC50 at 6 days ([4]; class symbols): ≥ 100000 nM
EC50 [5]: 1000 to 10000 nM
IC50 [6]: ≥ 10000 nM

O=C(NC1CC1)C(=O)[C@H](C[C@@H]1CCNC1=O)NC(=O)[C@@H]1CC2(CCN1C(=O)C1Cc3ccccc3C1)CC2 [Example 6, (S)—N—((S)-4-(cyclopropylamino)-3,4-dioxo-1-((S)-2-oxopyrrolidin-3-yl)butan-2-yl)-6-(2,3-dihydro-1H-indene-2-carbonyl)-6-azaspiro[2.5]octane-5-carboxamide]
IC50 [1]: 20 to 200 nM
IC50 [2, 7]: 200 to 2000 nM
EC50 [3, 8]: 100 to 1000 nM
CC50 at 6 days ([4]; class symbols): ≥ 100000 nM
EC50 [5]: < 1000 nM
IC50 [6]: ≥ 10000 nM

Cn1nc2ccccc2c1C(=O)N1CCC2(CC2)C[C@H]1C(=O)N[C@@H](C[C@@H]1CCNC1=O)C(=O)C(=O)NC1CC1 [Example 7]
IC50 [1]: < 20 nM
IC50 [2, 7]: 200 to 2000 nM
EC50 [3, 8]: 100 to 1000 nM
CC50 at 6 days ([4]; class symbols): ≥ 100000 nM
EC50 [5]: 1000 to 10000 nM
IC50 [6]: 1000 to 10000 nM
